For the first assay, the target named is T1, α4β1 (Homo sapiens, UniProt P05556+P13612).
T1 construct: Ramos cells, (50 μL at 2×10^6/mL) labeled with 5 μM Calcein AM; endogenous in cells; host or cells: Ramos cells
T1 sequence (P05556 21-798, one chain of several): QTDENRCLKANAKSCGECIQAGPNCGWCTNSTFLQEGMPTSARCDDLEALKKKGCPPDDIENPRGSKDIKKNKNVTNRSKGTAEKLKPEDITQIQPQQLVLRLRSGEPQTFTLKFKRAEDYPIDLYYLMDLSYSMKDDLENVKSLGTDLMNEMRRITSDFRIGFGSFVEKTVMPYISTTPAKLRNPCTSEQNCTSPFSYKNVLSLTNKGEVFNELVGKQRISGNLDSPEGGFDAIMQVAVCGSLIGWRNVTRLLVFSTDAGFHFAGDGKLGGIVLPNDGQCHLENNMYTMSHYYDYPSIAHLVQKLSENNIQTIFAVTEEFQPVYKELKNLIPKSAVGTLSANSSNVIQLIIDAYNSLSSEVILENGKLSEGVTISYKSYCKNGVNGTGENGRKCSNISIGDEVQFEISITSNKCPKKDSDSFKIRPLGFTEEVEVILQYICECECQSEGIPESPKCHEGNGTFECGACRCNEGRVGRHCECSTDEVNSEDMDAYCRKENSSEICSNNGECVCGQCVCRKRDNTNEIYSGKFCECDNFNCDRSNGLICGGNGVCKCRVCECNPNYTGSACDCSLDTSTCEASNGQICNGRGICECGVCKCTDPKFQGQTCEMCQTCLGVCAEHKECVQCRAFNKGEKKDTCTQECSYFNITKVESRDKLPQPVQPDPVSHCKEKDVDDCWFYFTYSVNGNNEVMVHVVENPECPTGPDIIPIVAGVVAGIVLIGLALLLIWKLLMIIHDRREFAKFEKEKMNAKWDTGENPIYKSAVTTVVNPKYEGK
As to the kind of experiment: Ramos Cell Adhesion Assay (α4β1 Mediated Adhesion/VCAM-1). The format is cell-based. The conditions noted are these: Ramos cells adhering to recombinant hVCAM-1. As to the method:
Ramos Cell Adhesion Assay (α4β1 Mediated Adhesion/VCAM-1)
Immulon 96 well plates (Dynex) were coated with 100 μL recombinant hVCAM-1 at 4.0 μg/mL in 0.05 M NaCO3 buffer pH 9.0 overnight at 4° C. (R&D Systems). Plates were washed 2 times in PBS with 1% BSA and blocked for 1 h@room temperature in this buffer. PBS was removed and compounds to be tested (50 μL) were added at 2× concentration. Ramos cells, (50 μL at 2×10^6/mL) labeled with 5 μM Calcein AM (Molecular Probes) for 1 h at 37° C., were added to each well and allowed to adhere for 1 h at room temperature. Plates were washed 4 × in PBS+1% BSA and cells were lysed for 15 minutes in 100 μL of 1 M Tris pH 8.0 with 1% SDS. The plate was read at 485 nm excitation and 530 nm emission.
On to `COc1cnn(C)c(=O)c1-c1ccc(C[C@H](NC(=O)N(C)CC(C)C)C(=O)O)cc1` [Cpd 13], for which the IC50 came to 1750 nM.
As to `COc1cnn(C)c(=O)c1-c1ccc(C[C@H](NC(=O)N(C)Cc2cnn(-c3ccccc3)c2)C(=O)O)cc1` [Cpd 29], the IC50 was over 5000 nM.
The same measure, in the same setting: next, `COc1cnn(C)c(=O)c1-c1ccc(C[C@H](NC(=O)N2CCCN(c3nc4ccccc4o3)CC2)C(=O)O)cc1` [Cpd 30]: over 5000 nM.
Consider `CC#CCN(Cc1ccco1)C(=O)N[C@@H](Cc1ccc(-c2c(OC)cnn(C)c2=O)cc1)C(=O)O` [Cpd 31], for which the IC50 was over 5000 nM.
Same read-out and setting: as for `COc1cccc2c1OCCCN(C(=O)N[C@@H](Cc1ccc(-c3c(OC)cnn(C)c3=O)cc1)C(=O)O)C2` [Cpd 32], the figure is over 5000 nM; as for `COc1cnn(C)c(=O)c1-c1ccc(C[C@H](NC(=O)N(C(C)C)C2CCCCC2)C(=O)O)cc1` [Cpd 33], over 5000 nM; as for `COc1cnn(C)c(=O)c1-c1ccc(C[C@H](NC(=O)N(C)C2CCN(Cc3ccccc3)C2)C(=O)O)cc1` (some centres unmarked) [Cpd 35], over 5000 nM.
Regarding `COc1cnn(C)c(=O)c1-c1ccc(C[C@H](NC(=O)N[C@@H]2CS(=O)(=O)C[C@H]2O)C(=O)O)cc1` [Cpd 36], the IC50 was over 5000 nM.
For the compound `CCN(CCN(C)C)C(=O)N[C@@H](Cc1ccc(-c2c(OC)cnn(C)c2=O)cc1)C(=O)O` [Cpd 37], the IC50 is over 5000 nM.
As to `COc1cnn(C)c(=O)c1-c1ccc(C[C@H](NC(=O)N2CCC[C@@H]2CNc2ccccc2)C(=O)O)cc1` [Cpd 38], the concentration for half-maximal inhibition (IC50) is over 5000 nM.

The target in the next assay is T2, human α4β7 integrin (Homo sapiens, UniProt P13612+P26010).
T2 construct: expressed in transfected cells; host or cells: K562 cells, stably transfected
T2 sequence (P13612 34-1032): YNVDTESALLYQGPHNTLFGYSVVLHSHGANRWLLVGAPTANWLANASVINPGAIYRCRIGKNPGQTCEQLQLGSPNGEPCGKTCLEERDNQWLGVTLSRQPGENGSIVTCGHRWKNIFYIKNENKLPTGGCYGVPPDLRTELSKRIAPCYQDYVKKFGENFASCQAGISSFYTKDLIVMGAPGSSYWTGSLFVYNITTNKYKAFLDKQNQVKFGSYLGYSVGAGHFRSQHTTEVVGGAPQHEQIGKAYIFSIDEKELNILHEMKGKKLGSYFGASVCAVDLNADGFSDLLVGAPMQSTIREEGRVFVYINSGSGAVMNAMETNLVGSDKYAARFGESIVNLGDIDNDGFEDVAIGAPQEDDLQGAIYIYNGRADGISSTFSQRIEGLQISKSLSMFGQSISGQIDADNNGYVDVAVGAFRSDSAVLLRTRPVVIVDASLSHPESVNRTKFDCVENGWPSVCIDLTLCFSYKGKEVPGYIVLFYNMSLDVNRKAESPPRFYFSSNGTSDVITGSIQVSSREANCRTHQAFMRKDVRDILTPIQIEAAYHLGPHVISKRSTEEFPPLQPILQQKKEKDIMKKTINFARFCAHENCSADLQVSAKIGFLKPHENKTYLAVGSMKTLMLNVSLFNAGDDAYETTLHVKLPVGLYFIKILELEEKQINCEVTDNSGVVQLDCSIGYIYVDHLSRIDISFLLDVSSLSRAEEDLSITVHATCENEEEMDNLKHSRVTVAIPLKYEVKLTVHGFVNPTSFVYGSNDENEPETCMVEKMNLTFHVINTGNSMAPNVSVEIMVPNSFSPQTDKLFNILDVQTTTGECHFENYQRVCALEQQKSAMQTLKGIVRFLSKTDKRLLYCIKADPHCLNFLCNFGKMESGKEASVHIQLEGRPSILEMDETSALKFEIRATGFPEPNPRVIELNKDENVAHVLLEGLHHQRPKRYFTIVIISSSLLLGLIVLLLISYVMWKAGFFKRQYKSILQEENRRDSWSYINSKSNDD
T2 sequence (P26010 20-798): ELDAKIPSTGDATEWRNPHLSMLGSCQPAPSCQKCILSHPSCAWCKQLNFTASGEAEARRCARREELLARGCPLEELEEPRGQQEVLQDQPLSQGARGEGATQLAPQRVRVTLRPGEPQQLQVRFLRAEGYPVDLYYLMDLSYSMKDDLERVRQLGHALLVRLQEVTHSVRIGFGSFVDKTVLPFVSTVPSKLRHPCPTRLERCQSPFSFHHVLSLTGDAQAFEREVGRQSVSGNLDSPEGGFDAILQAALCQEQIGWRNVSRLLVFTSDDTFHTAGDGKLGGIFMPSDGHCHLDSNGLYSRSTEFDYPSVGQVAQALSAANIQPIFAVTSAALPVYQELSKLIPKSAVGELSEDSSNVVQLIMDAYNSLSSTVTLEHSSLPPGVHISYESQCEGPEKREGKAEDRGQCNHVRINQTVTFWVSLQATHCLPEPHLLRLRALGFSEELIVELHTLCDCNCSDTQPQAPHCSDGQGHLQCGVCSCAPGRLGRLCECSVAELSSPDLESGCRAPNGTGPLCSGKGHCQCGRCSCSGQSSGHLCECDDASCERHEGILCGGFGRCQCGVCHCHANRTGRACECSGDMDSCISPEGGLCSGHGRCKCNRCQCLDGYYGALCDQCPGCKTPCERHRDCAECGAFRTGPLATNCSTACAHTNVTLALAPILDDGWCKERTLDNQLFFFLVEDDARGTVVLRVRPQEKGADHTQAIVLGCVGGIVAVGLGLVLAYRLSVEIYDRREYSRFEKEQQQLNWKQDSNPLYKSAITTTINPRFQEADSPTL
As to the kind of experiment: α4β7-K562 Cell Adhesion Assay (α4β7 Mediated Adhesion/MAdCAM-1). The conditions noted are these: K562 cells expressing human α4β7 adhering to FLAG-hMAdCAM-1, 1 mM Mn2+. It counts as cell-based. As for the experimental part:
α4β7-K562 Cell Adhesion Assay (α4β7 Mediated Adhesion/MAdCAM-1)
M2 anti-FLAG Antibody Coated 96-well plates (Sigma) were coated for 1 hour at 4° C. with 2-8 μL/well recombinant FLAG-hMAdCAM-1 contained in 100 μL of Dulbecco's PBS, pH 7.4, with 1% BSA and 1 mM Mn^2+ (PBS-BSA-Mn). Plates were washed once with PBS-BSA-Mn. Buffer was removed and compounds to be tested (50 μL) were added at 2× concentration. Stably transfected K562 cells expressing human α4β7 integrin, (50 μL at 2×10^6/mL) that had been labeled with 100 μg/mL carboxymethyl fluorescein diacetate succinimidyl ester (CFDA-SE; Molecular Probes) for 15 min at 37° C. were added to each well and allowed to adhere for 1 h at room temperature. Plates were washed 4× in PBS-BSA-Mn and then cells were lysed for 2 min by addtion of 100 μL of PBS without Ca^2+, Mg^2+ supplemented with 0.1 M NaOH. The plate was read on a 96-well fluorescent plate reader at 485 nm excitation and 530 nm emission.
In turn, `COc1cnn(C)c(=O)c1-c1ccc(C[C@H](NC(=O)N(C)CC(C)C)C(=O)O)cc1` [Cpd 13] showed an IC50 of 17 nM.
On the same count and under the same terms, next, `COc1cnn(C)c(=O)c1-c1ccc(C[C@H](NC(=O)N(C)Cc2cnn(-c3ccccc3)c2)C(=O)O)cc1` [Cpd 29]: 694 nM; `COc1cnn(C)c(=O)c1-c1ccc(C[C@H](NC(=O)N2CCCN(c3nc4ccccc4o3)CC2)C(=O)O)cc1` [Cpd 30]: 156 nM; `CC#CCN(Cc1ccco1)C(=O)N[C@@H](Cc1ccc(-c2c(OC)cnn(C)c2=O)cc1)C(=O)O` [Cpd 31]: 414 nM.
For the compound `COc1cccc2c1OCCCN(C(=O)N[C@@H](Cc1ccc(-c3c(OC)cnn(C)c3=O)cc1)C(=O)O)C2` [Cpd 32], the IC50 is 428 nM.
The same measure, in the same setting: as for `COc1cnn(C)c(=O)c1-c1ccc(C[C@H](NC(=O)N(C(C)C)C2CCCCC2)C(=O)O)cc1` [Cpd 33], the figure is 310 nM; as for `COc1cnn(C)c(=O)c1-c1ccc(C[C@H](NC(=O)N(C)C2CCN(Cc3ccccc3)C2)C(=O)O)cc1` (some centres unmarked) [Cpd 35], 1830 nM; as for `COc1cnn(C)c(=O)c1-c1ccc(C[C@H](NC(=O)N[C@@H]2CS(=O)(=O)C[C@H]2O)C(=O)O)cc1` [Cpd 36], 674 nM.
On the same count and under the same terms, as for `CCN(CCN(C)C)C(=O)N[C@@H](Cc1ccc(-c2c(OC)cnn(C)c2=O)cc1)C(=O)O` [Cpd 37], the figure is 297 nM; as for `COc1cnn(C)c(=O)c1-c1ccc(C[C@H](NC(=O)N2CCC[C@@H]2CNc2ccccc2)C(=O)O)cc1` [Cpd 38], 967 nM.

The next assay deals with Balb/c mice. In words: In Vivo Model for Leukocytosis. Also noted: species or system mouse. The conditions noted are these: 3 mg/kg sc, bled 1-1.5 h after administration. The source says:
In Vivo Model for Leukocytosis
Leukocytosis the increase in circulating white blood cells (leukocytes). This can be brought about by preventing leukocyte binding to integrin counter-receptor adhesion molecules expressed on high endothelial venules. This cell adhesion occurs between immunoglobulin superfamily molecules and integrins. Relevant examples of these paired interactions include Intracellular Adhesion Molecule-1 and AlphaL Beta2 integrin, Vascular Cell Adhesion Molecule-1 and α4β1 integrin, and Mucosal Addressin Cell Adhesion Molecule-1 and α4β7 integrin, respectively.
In this model, a compound that antagonizes these leukocyte-endothelial interactions will cause an increase in circulating leukocytes, defined as leukocytosis, as measured at 1-1.5 h post-administration. This leukocytosis is indicative that normal lymphocyte or leukocyte emigration from the peripheral circulation was prevented. Similar emigration of cells out of the circulation into inflamed tissues is responsible for the progression and maintainance of the inflammatory state. Leukocytosis is an indication that lymphocyte and leukocyte extravasation is prevented, and is predictive of general anti-inflammatory activity.
One week prior to being tested, 7-10 week old female Balb/c mice, n=8 per group, were bled and randomized according to leukocyte counts. One week later, the mice were adminstered test compound orally or subcutaneously and then bled 1-1.5 h after drug administration, approximately 1 h after the peak blood concentration of the compound has occurred. Whole blood, 250-350 microliters, was collected from each mouse into potassium-EDTA […] collection tubes (Becton-Dickenson) and mixed to prevent clotting.
Cell counts and differential counts on the whole blood preparation were performed using an Advia 120 Hematology System (Bayer Diagnostics). Cell counts as total leukocytes and as total lympohcytes were made and compared to counts made from mice dosed with vehicle only. Data were reported as percent of vehicle control for lymphocyte counts and total leukocyte counts.
Statistical analyses were performed using ANOVA with Dunnet's multiple comparison test.
For `COc1cnn(C)c(=O)c1-c1ccc(C[C@H](NC(=O)N(C)CC(C)C)C(=O)O)cc1` [Cpd 13], the “Lymphoycte Counts % of Vehicle Control” value is given as 84.4 % of Vehicle Control and the “Total Leukocyte Count % of Vehicle Control” value (shortened to “Total Leukocyte Count %”) is 84.4 % of Vehicle Control.

Staying with this assay, now noted: 10 mg/kg sc, bled 1-1.5 h after administration.
With `COc1cnn(C)c(=O)c1-c1ccc(C[C@H](NC(=O)N(C)CC(C)C)C(=O)O)cc1` [Cpd 13], the “Lymphoycte Counts % of Vehicle Control” value is recorded as 133.6 % of Vehicle Control and the “Total Leukocyte Count %” value was 133.5 % of Vehicle Control.

The same assay, now with this note: 30 mg/kg sc, bled 1-1.5 h after administration.
For `COc1cnn(C)c(=O)c1-c1ccc(C[C@H](NC(=O)N(C)CC(C)C)C(=O)O)cc1` [Cpd 13], the “Lymphoycte Counts % of Vehicle Control” value is on record as 154.3 % of Vehicle Control and the “Total Leukocyte Count %” value is listed as 149.5 % of Vehicle Control.
